{
  "source": "patent US11007141B2",
  "about": "“Oral preparation and preparation method thereof” (GUANGZHOU XIANGXUE PHARMACEUTICAL CO., LTD., priority 2015, dated 2021)",
  "key": {"[1]": {"test": "Concentration of drug-containing HP-β-CD preparation after filtration (HPLC)", "settings": "21 mg/ml drug-containing preparation in 30% HP-β-CD, pH 1.2; API not completely dissolved after 30 minutes ultrasound; 0.45 μm PES filter"}, "[2]": {"test": "Tablet stability at high temperature (60° C.), high humidity (92.5% RH), −20° C.", "format": "physicochemical"}, "[3]": {"settings": "for Water (water-addition-precipitating critical point of drug solution): 100 mg drug; for dissolution in aqueous solution containing surfactant: magnetic stirring 1 hour", "experimental": "In this study, a dissolution test was performed using a single non-aqueous solvent ethanol.\nIn this study, a dissolution test was also performed using composite solvents composed of PEG400 or PEG200 and absolute ethanol, respectively.\nIn addition, in this study, dissolution tests were also performed using a single non-aqueous solvent propylene glycol, or a composite solvent composed of propylene glycol and other non-aqueous solvent.\nNext, the dilution stability of these two solvent systems was tested."}, "[4]": {"settings": "API 0.5 mg/ml, 20% γ-CD, molar ratio 174:1", "experimental": "(§1) Different kinds of cyclodextrins were dissolved with an aqueous hydrochloric acid solution (0.1N) having a pH value of 1.2 to determine the saturation concentration of each cyclodextrin.\nA certain amount of API was weighed and added into an appropriate volume of the cyclodextrin solution. […] The clear solution after the pH adjustment was left to stand to observe the state of the solution after standing for 2 hours, 4 hours, and 24 hours."}, "[5]": {"test": "Maximum solubility of cyclodextrins in hydrochloric acid solution pH 1.2", "experimental": "as §1\n(1) A certain amount of α-, β- and γ-cyclodextrin were weighed and added into a 10 mL volumetric flask, then an aqueous hydrochloric acid solution of pH 1.2 was gradually added until reaching the scale of the flask, and the flask was shocked and ultrasound was performed to dissolve the cyclodextrin. The maximum amount of cyclodextrin capable of being dissolved in a 10 mL solution was recorded."}},
  "note": "Like-named read-outs stand apart in the source and are kept apart here.",
  "data": [
    {"smiles": "O=C(Cc1ccc(-c2ccc(N3CCOCC3)cc2)cn1)NCc1cccc(F)c1.O=S(=O)(O)c1ccccc1", "note": "[KX2-361.benzene sulfonate]", "values": [
      {"measurement": "concentration after filtration, calibrated with HPLC", "setting": "[1]", "result": 20660, "unit": "µg/mL"},
      {"measurement": "Total impurity (%)", "setting": "[2]; 0 day", "result": 0.33, "unit": "%"},
      {"measurement": "Total impurity (%)", "setting": "[2]; High humidity, 20 days", "result": 0.31, "unit": "%"},
      {"measurement": "Total impurity (%)", "setting": "[2]; High temperature, 10 days", "result": 0.32, "unit": "%"},
      {"measurement": "Total impurity (%)", "setting": "[2]; High temperature, 20 days", "result": 0.32, "unit": "%"},
      {"measurement": "Total impurity (%)", "setting": "[2]; −20° C., 20 days", "result": 0.36, "unit": "%"},
      {"measurement": "Water (water-addition-precipitating critical point of drug solution)", "setting": "[3]; Cremophor EL 17.1 g, 40° C.", "result": 6.7, "unit": "g"},
      {"measurement": "Water (water-addition-precipitating critical point of drug solution)", "setting": "[3]; Solutolo HS-15 10 g, 40° C.", "result": 4.5, "unit": "g"},
      {"measurement": "Water (water-addition-precipitating critical point of drug solution)", "setting": "[3]; Solutolo HS-15 15 g, 28° C.", "result": 8.7, "unit": "g"},
      {"measurement": "Water (water-addition-precipitating critical point of drug solution)", "setting": "[3]; Solutolo HS-15 20 g, 28° C.", "result": 12.6, "unit": "g"},
      {"measurement": "dissolution in aqueous solution containing surfactant", "setting": "[3]; drug containing 10 mg of KX2-361 in 0.6% Poloxamer 188 aqueous solution (50 ml)", "result": "failed to completely dissolve"},
      {"measurement": "dissolution in aqueous solution containing surfactant", "setting": "[3]; drug containing 10 mg of KX2-361 in 2% Tween80 aqueous solution (50 ml)", "result": "failed to completely dissolve"},
      {"measurement": "dissolution in aqueous solution containing surfactant", "setting": "[3]; drug containing 10 mg of KX2-361 in 8% Solutol HS15 aqueous solution (50 ml)", "result": "failed to completely dissolve"},
      {"measurement": "dissolution in aqueous solution containing surfactant", "setting": "[3]; drug containing 10 mg of KX2-361 in 10% Cremophor EL aqueous solution (50 ml)", "result": "failed to completely dissolve"},
      {"measurement": "dissolution in propylene glycol", "setting": "[3]; drug containing 50 mg of KX2-361 in 20 ml of propylene glycol alone, a trace of small particles still present", "result": "could substantially be dissolved"},
      {"measurement": "solubility in ethanol", "setting": "[3]; ethanol (95% v/v)", "result": "1120 to 2380", "unit": "µg/mL"},
      {"measurement": "Solution phenomenon when the pH value was adjusted to 4", "setting": "[4]", "result": "turbid"}
    ]},
    {"smiles": "OC[C@H]1O[C@@H]2O[C@H]3[C@H](O)[C@@H](O)[C@@H](O[C@H]4[C@H](O)[C@@H](O)[C@@H](O[C@H]5[C@H](O)[C@@H](O)[C@@H](O[C@H]6[C@H](O)[C@@H](O)[C@@H](O[C@H]7[C@H](O)[C@@H](O)[C@@H](O[C@H]1[C@H](O)[C@H]2O)O[C@@H]7CO)O[C@@H]6CO)O[C@@H]5CO)O[C@@H]4CO)O[C@@H]3CO", "note": "[α-cyclodextrin]", "values": [
      {"measurement": "maximum solubility", "setting": "[5]; aqueous hydrochloric acid solution of a pH value of 1.2", "result": "about 8%"}
    ]},
    {"smiles": "OC[C@H]1O[C@@H]2O[C@H]3[C@H](O)[C@@H](O)[C@@H](O[C@H]4[C@H](O)[C@@H](O)[C@@H](O[C@H]5[C@H](O)[C@@H](O)[C@@H](O[C@H]6[C@H](O)[C@@H](O)[C@@H](O[C@H]7[C@H](O)[C@@H](O)[C@@H](O[C@H]8[C@H](O)[C@@H](O)[C@@H](O[C@H]1[C@H](O)[C@H]2O)O[C@@H]8CO)O[C@@H]7CO)O[C@@H]6CO)O[C@@H]5CO)O[C@@H]4CO)O[C@@H]3CO", "note": "[β-cyclodextrin]", "values": [
      {"measurement": "maximum solubility", "setting": "[5]", "result": "about 1%"}
    ]},
    {"smiles": "OC[C@H]1O[C@@H]2O[C@H]3[C@H](O)[C@@H](O)[C@@H](O[C@H]4[C@H](O)[C@@H](O)[C@@H](O[C@H]5[C@H](O)[C@@H](O)[C@@H](O[C@H]6[C@H](O)[C@@H](O)[C@@H](O[C@H]7[C@H](O)[C@@H](O)[C@@H](O[C@H]8[C@H](O)[C@@H](O)[C@@H](O[C@H]9[C@H](O)[C@@H](O)[C@@H](O[C@H]1[C@H](O)[C@H]2O)O[C@@H]9CO)O[C@@H]8CO)O[C@@H]7CO)O[C@@H]6CO)O[C@@H]5CO)O[C@@H]4CO)O[C@@H]3CO", "note": "[γ-cyclodextrin]", "values": [
      {"measurement": "maximum solubility", "setting": "[5]", "result": "about 20%"}
    ]}
  ]
}
